Test results: PubChem BioAssay (NCI)
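Each compound was tested at five concentrations against cells in 96-well plates for 48 hours. TGI: concentration producing complete growth inhibition.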

Experiments:
Assay in all cases: NCI-60 cell line screen, 48 h
[1] = test system: SNB-19 CNS
[2] = test system: HT29 colon
[3] = test system: HS 578T breast
[4] = test system: UO-31 renal
[5] = test system: M14 melanoma
[6] = test system: HCT-116 colon
[7] = test system: SNB-75 CNS
[8] = test system: LOX IMVI melanoma
[9] = test system: MOLT-4 leukemia
[10] = test system: SK-MEL-5 melanoma
[11] = test system: MCF7 breast
[12] = test system: MDA-MB-231 breast
[13] = test system: RPMI-8226 leukemia
[14] = test system: SK-MEL-28 melanoma
[15] = test system: MALME-3M melanoma
[16] = test system: SN12C renal
[17] = test system: DU-145 prostate
[18] = test system: K-562 leukemia
[19] = test system: RXF 393 renal
[20] = test system: SF-539 CNS
[21] = test system: CCRF-CEM leukemia
[22] = test system: OVCAR-3 ovarian
[23] = test system: HOP-92 NSCLC
[24] = test system: SK-MEL-2 melanoma
[25] = test system: PC-3 prostate
[26] = test system: A549 NSCLC
[27] = test system: IGROV1 ovarian
[28] = test system: HCC-2998 colon
[29] = test system: TK-10 renal
[30] = test system: NCI-H460 lung
[31] = test system: NCI-H23 lung
[32] = test system: SR leukemia
[33] = test system: HL-60(TB) leukemia
[34] = test system: 786-0 renal
[35] = test system: SK-OV-3 ovarian
[36] = test system: SW-620 colon
[37] = test system: HOP-62 NSCLC
[38] = test system: ACHN renal
[39] = test system: SF-268 CNS
[40] = test system: OVCAR-8 ovarian
[41] = test system: OVCAR-5 ovarian
[42] = test system: EKVX NSCLC
[43] = test system: KM12 colon
[44] = test system: MDA-N
[45] = test system: T-47D breast
[46] = test system: OVCAR-4 ovarian
[47] = test system: CAKI-1 renal
[48] = test system: UACC-62 melanoma
[49] = test system: UACC-257 melanoma
[50] = test system: A498 renal
[51] = test system: BT-549 breast
[52] = test system: NCI-H522 lung
[53] = test system: NCI-H226 lung
[54] = test system: HCT-15 colon
[55] = test system: U251 CNS
[56] = test system: COLO 205 colon
[57] = test system: SF-295 CNS
[58] = test system: MDA-MB-435
[59] = test system: NCI/ADR-RES ovarian
[60] = test system: DMS 114 small cell lung
[61] = test system: LXFL 529 NSCLC
[62] = test system: KM20L2 colon
[63] = test system: SNB-78 CNS
[64] = test system: M19-MEL melanoma
[65] = test system: DMS 273 small cell lung
[66] = test system: HOP-18 NSCLC
[67] = test system: DLD-1 colon

Measured: TGI

COc1ccc2nc(N/N=C/C(C)=N/Nc3cc(C)c4cc(OC)ccc4n3)cc(C)c2c1
50.5 µM: [37]
64.6 µM: [48]
51.4 µM: [16]
44.1 µM: [43]
28.7 µM: [2]
68.8 µM: [3]
> 100 µM: [4] | [35] | [51]
49.5 µM: [41]
34.7 µM: [20]
> 86.6 µM: [49]
25.1 µM: [54]
40.6 µM: [33]
> 83.1 µM: [19]
69.4 µM: [29]
32.5 µM: [30]
> 82.1 µM: [24]
35.6 µM: [46]
42.8 µM: [57]
> 89.9 µM: [23]
40.2 µM: [42]
12.8 µM: [32]
62.1 µM: [58]
48.9 µM: [31]
29.8 µM: [11]
36.7 µM: [12]
> 80.9 µM: [50]
9.81 µM: [18]
5.45 µM: [21]
> 73.6 µM: [45]
43.5 µM: [36]
45.6 µM: [25]
55.5 µM: [44]
53.3 µM: [53]
57.9 µM: [56]
40.3 µM: [52]
53.6 µM: [22]
42.1 µM: [9]
45.7 µM: [26]
47.7 µM: [7]
76.4 µM: [15]
55.8 µM: [1]
60.8 µM: [39]
19.2 µM: [13]
80.2 µM: [5]
54.8 µM: [8]
34.8 µM: [17]
28 µM: [34]
76.1 µM: [47]
39.5 µM: [40]
55.3 µM: [38]
28.6 µM: [6]
72.8 µM: [10]
47.1 µM: [27] | [28]
74.5 µM: [14]
46.1 µM: [59]
31.6 µM: [55]

CC(=O)Nc1cc([As](=O)(O)O)ccc1O
not listed: [60] | [61] | [62] | [63] | [64] | [65] | [66] | [67]
> 100 µM: all other assays above

COc1cc(Cn2c3ccccc3c3cc(C)c4c(c32)C=CC(C)(CCC=C(C)C)O4)cc2c1[nH]c1ccccc12 (centres undefined)
not listed: [3] | [11] | [12] | [17] | [25] | [44] | [45] | [51] | [53] | [58] | [59]
> 100 µM: all other assays above
